In this assay the target is T1, human glucagon receptor (Homo sapiens, UniProt P47871).
T1 construct: expressed in transfected cells; host or cells: membranes of BHK cells, clone BHK hGCGR A3*25
The assay can be described thus: Assay (I)(b) glucagon receptor activation, CRE luciferase reporter gene assay in BHK cells. The format is cell-based. The settings on record: without presence of serum albumin; read-out: GlucagonR EC50 (pM), [Assay (I)(b)]. The procedure: The purpose of this example was to test the activity or potency, of the glucagon derivatives of the invention, in vitro. The in vitro potency is the measure of human GLP-1 receptor (GLP-1R) or glucagon receptor (glucagonR) activation, respectively, in a whole cell assay. In vitro potency was determined by measuring the response of human GLP-1 or glucagon receptor, respectively, in a reporter gene assay. The assay was performed in a stably transfected BHK cell line that expresses either the human GLP-1 receptor or the human glucagon receptor and contains the DNA for the cAMP response element (CRE) coupled to a promoter and the gene for firefly luciferase (CRE luciferase). […] When assay incubation was completed, the luciferase substrate (luciferin) was added and the enzyme converted luciferin to oxyluciferin and produces bioluminescence. The luminescence was measured as the readout for the assay. The cells used in this assay (clone pLJ6′-4-25) were BHK cells with BHK570 as a parent cell line expressing the CRE luciferase gene (clone BHK/KZ10-20-48) and were established by further transfection with the human glucagon receptor (clone pLJ6′ in pHZ-1 vector). The cells were cultured at 5% CO2 in DMEM medium with 10% FBS, 1×GlutaMAX, 1 mg/ml G418, 240 nM MTX (methotrexate) and 1% pen/strep (penicillin/streptomycin). They were aliquoted and stored in liquid nitrogen. Before each assay, an aliquot was taken up and washed three times in PBS before being suspended at the desired concentration in assay medium. For 96-well plates the suspension was made to give a final concentration of 5×10EE3 cells/well. The following chemicals were used in the assay: Pluronic F-68 (10%) (Gibco 2404), ovalbumin (Sigma A5503), DMEM w/o phenol red (Gibco 11880-028), 1 M Hepes (Gibco 15630), Glutamax 100× (Gibco 35050) and steadylite plus (PerkinElmer 6016757). Assay Medium consisted of DMEM w/o phenol red, 10 mM Hepes, 1× GlutaMAX, 2% Ovalbumin and 0.2% Pluronic F-68. Cell stocks were thawed in a 37° C. water bath. Cells were washed three times in PBS. The cells were counted and adjusted to 5×10EE3 cells/50 μl (1×10EE5 cells/ml) in Assay Medium. A 50 μl aliquot of cells was transferred to each well in the assay plate. Stocks of the test compounds and reference compounds were diluted to a concentration of […] in Assay Medium. Compounds were diluted 10-fold to give the following concentrations: 2×10EE-6 M, 2×10EE-7 M, 2×10EE-8 M; 2×10EE-9 M, 2×10EE-10 M, 2×10EE-11 M, 2×10EE-12 M and 2×10EE-13 M. For each compound a blank assay medium control was also included. A 50 μl aliquot of compound or blank was transferred from the dilution plate to the assay plate. Compounds were tested at the following final concentrations: 1×10EE-6 M, 1×10EE-7 M, 1×10EE-8 M; 1×10EE-9 M, 1×10EE-10 M, 1×10EE-11 M and 1×10EE-12 M and 1×10EE-13 M. The assay plate was incubated for 3 h in a 5% CO2 incubator at 37° C. The assay plate was removed from the incubator and allowed to stand at room temperature for 15 min. A 100 μl aliquot of steadylite plus reagent was added to each well of the assay plate (reagent is light sensitive). Each assay plate was covered with aluminum foil to protect it from light and shaken for 30 min at room temperature. Each assay plate was read in a Perkin Elmer TopCount NXT instrument. The data from the TopCount instrument was transferred to GraphPad Prism software. The software performed a non-linear regression (log(agonist) vs response-Variable slope (four parameter)). EC50 values were calculated by the software and reported in pM.

Starred links: 1 amine or outer side, 2 acyl side, 3 side chain; linkers in the order of their positions; H or OH if unused. Non-standard residues stand in square brackets, D forms with d. Residues, ends and D or L forms follow the SMILES beside them. Groups on a side chain read outwards from the residue. *: point of attachment. C18 diacid = O=C(O)CCCCCCCCCCCCCCCCC(=O)*; γGlu = O=C(O)[C@H](CCC(=O)[*:2])N[*:1]; AEEA = NCCOCCOCC(=O)O; Aib = CC(C)(N)C(=O)O

T1 sequence (P47871 26-477): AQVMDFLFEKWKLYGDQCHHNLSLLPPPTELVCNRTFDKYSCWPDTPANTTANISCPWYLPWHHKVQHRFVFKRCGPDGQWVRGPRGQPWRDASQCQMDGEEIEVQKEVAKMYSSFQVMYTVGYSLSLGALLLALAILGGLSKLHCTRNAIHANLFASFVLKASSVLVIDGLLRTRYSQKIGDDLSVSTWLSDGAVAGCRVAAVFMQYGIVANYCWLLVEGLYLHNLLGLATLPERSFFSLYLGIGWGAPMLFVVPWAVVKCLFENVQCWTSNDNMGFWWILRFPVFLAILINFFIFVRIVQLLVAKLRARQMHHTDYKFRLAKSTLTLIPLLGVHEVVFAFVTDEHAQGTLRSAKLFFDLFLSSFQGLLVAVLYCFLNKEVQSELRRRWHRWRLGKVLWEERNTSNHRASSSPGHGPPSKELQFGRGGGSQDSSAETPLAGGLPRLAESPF

Turning to `CC[C@H](C)[C@H](NC(=O)[C@H](CC(C)C)NC(=O)[C@H](Cc1c[nH]c2ccccc12)NC(=O)[C@H](CCCCNC(=O)COCCOCCNC(=O)COCCOCCNC(=O)CC[C@H](NC(=O)CC[C@H](NC(=O)CC[C@H](NC(=O)CCCCCCCCCCCCCCCCC(=O)O)C(=O)O)C(=O)O)C(=O)O)NC(=O)[C@@H](NC(=O)[C@H](Cc1ccccc1)NC(=O)[C@H](CCC(=O)O)NC(=O)[C@H](CCCNC(=N)N)NC(=O)[C@H](C)NC(=O)[C@H](CCCNC(=N)N)NC(=O)[C@H](CCCNC(=N)N)NC(=O)[C@H](C)NC(=O)[C@H](CC(=O)O)NC(=O)[C@H](CC(C)C)NC(=O)[C@H](Cc1ccc(O)cc1)NC(=O)[C@H](CCCCN)NC(=O)[C@H](CO)NC(=O)[C@H](Cc1ccc(O)cc1)NC(=O)[C@H](CC(=O)O)NC(=O)[C@H](CO)NC(=O)[C@@H](NC(=O)[C@H](Cc1ccccc1)NC(=O)[C@@H](NC(=O)CNC(=O)[C@H](CCC(N)=O)NC(=O)C(C)(C)NC(=O)[C@@H](N)Cc1c[nH]cn1)[C@@H](C)O)[C@@H](C)O)C(C)C)C(=O)N[C@@H](CO)C(=O)N[C@H](C(N)=O)[C@@H](C)O` [Chem. 4, N^ε24-[2-[2-[2-[[2-[2-[2-[[(4S)-4-carboxy-4-[[(4S)-4-carboxy-4-[[(4S)-4-carboxy-4-(17-carboxyheptadecanoylamino)butanoyl]amino]butanoyl]amino]butanoyl]amino]ethoxy]ethoxy]acetyl]amino]ethoxy]ethoxy]acetyl]-[Aib2,Ala16,Arg20,Glu21,Lys24,Ile27,Ser28]-Glucagon amide] (H-H[Aib]QGTFTSDYSKYLDARRAREFVK([AEEA-AEEA-γGlu-γGlu-γGlu-C18 diacid])WLIST-NH2; N-terminus assumed), the EC50 (in general, the concentration giving half of the maximal effect) came out at 12 pM.

Take `CC[C@H](C)[C@H](NC(=O)[C@H](CC(C)C)NC(=O)[C@H](Cc1c[nH]c2ccccc12)NC(=O)[C@H](CCC(N)=O)NC(=O)[C@@H](NC(=O)[C@H](Cc1ccccc1)NC(=O)[C@H](CC(=O)O)NC(=O)[C@H](CCC(N)=O)NC(=O)[C@H](C)NC(=O)[C@H](CCCNC(=N)N)NC(=O)[C@H](CCCNC(=N)N)NC(=O)[C@H](C)NC(=O)[C@H](CC(=O)O)NC(=O)[C@H](CC(C)C)NC(=O)[C@H](Cc1ccc(O)cc1)NC(=O)[C@H](CCCCN)NC(=O)[C@H](CO)NC(=O)[C@H](CC(C)C)NC(=O)[C@H](CC(=O)O)NC(=O)[C@H](CO)NC(=O)[C@@H](NC(=O)[C@H](Cc1ccccc1)NC(=O)[C@@H](NC(=O)CNC(=O)[C@H](CCC(N)=O)NC(=O)C(C)(C)NC(=O)[C@@H](N)Cc1c[nH]cn1)[C@@H](C)O)[C@@H](C)O)C(C)C)C(=O)N[C@@H](CCCCNC(=O)COCCOCCNC(=O)COCCOCCNC(=O)CC[C@H](NC(=O)CC[C@H](NC(=O)CC[C@H](NC(=O)CCCCCCCCCCCCCCCCC(=O)O)C(=O)O)C(=O)O)C(=O)O)C(=O)N[C@H](C(N)=O)[C@@H](C)O` [Chem. 7, N^ε28-[2-[2-[2-[[2-[2-[2-[[(4S)-4-carboxy-4-[[(4S)-4-carboxy-4-[[(4S)-4-carboxy-4-(17-carboxyheptadecanoylamino)butanoyl]amino]butanoyl]amino]butanoyl]amino]ethoxy]ethoxy]acetyl]amino]ethoxy]ethoxy]acetyl]-[Aib2,Leu10,Ala16,Ile27,Lys28]-Glucagon amide] (H-H[Aib]QGTFTSDLSKYLDARRAQDFVQWLIK([AEEA-AEEA-γGlu-γGlu-γGlu-C18 diacid])T-NH2; N-terminus assumed): the EC50 came out at 32 pM.

For the origin of these results see patent publication US10570184B2, “GLP-1/glucagon receptor co-agonists for medical use” (Novo Nordisk A/S, priority 2014, dated 2020).
